From patent US6444612B1, “Use of 5-amino-pyrazol-derivatives for combating micro-organisms” (Bayer Aktiengesellschaft, priority 1998, dated 2002)
Blank lines part the entries; values can stand above or below the compound they belong to.

Legend:
[1] = tested on: Sphaerotheca fuliginea; experiment: Sphaerotheca test (cucumber)/protective; type: in vivo; details: protective, application rate 100 g/ha, evaluation 10 days after inoculation, 100% = no infection
Experimental: Sphaerotheca Test (Cucumber)/Protective
(§1) Solvent: 47 parts by weight of acetone
(§2) Emulsifier: 3 parts by weight of alkylaryl polyglycol ether
(§3) To produce a suitable preparation of active compound, 1 part by weight of active compound is mixed with the stated amounts of solvent and emulsifier, and the concentrate is diluted with water to the desired concentration.
(§4) To test for protective activity, young plants are sprayed with the preparation of active compound at the stated application rate. After the spray coating has dried on, the plants are inoculated with an aqueous spore suspension of Sphaerotheca fuliginea. The plants are then placed in a greenhouse at about 23° C. and a relative atmospheric humidity of about 70%.
Evalution is carried out 10 days after the inoculation. 0% means an efficacy which corresponds to that of the control, whereas an efficacy of 100% means that no infection is observed.

[2] = tested on: Pyrenophora teres; experiment: Pyrenophora teres test (barley)/curative; type: in vivo; details: curative, application rate 250 g/ha, evaluation 7 days after inoculation, 100% = no infection
Experimental: Pyrenophora Teres Test (Barley)/Curative
(§5) Solvent: 25 parts by weight of N,N-dimethylacetamide
Emulsifier: 0.6 parts by weight of alkylaryl polyglycol ether
as §3
To test for curative activity, young plants are sprayed with a conidia suspension of Pyrenophora teres. The plants remain in an incubation cabin at 20° C. and 100% relative atmospheric humidity for 48 hours. The plants are then sprayed with the preparation of active compound at the stated application rate.
The plants are placed in a greenhouse at a temperature of about 20° C. and a relative atmospheric humidity of about 80%.
(§6) Evaluation is carried out 7 days after the inoculation. 0% means an efficacy which corresponds to that of the control, whereas an efficacy of 100% means that no infection is observed.

[3] = tested on: Podosphaera leucotricha; experiment: Podosphaera test (apple)/protective; type: in vivo; details: protective, application rate 100 g/ha, evaluation 10 days after inoculation, 100% = no infection
Experimental: Podosphaera Test (Apple)/Protective
as §1, §2, §3
as §4, with “the apple mildew pathogen Podosphaera leucotricha.” for “Sphaerotheca fuliginea.”
Evaluation is carried out 10 days after the inoculation. 0% means an efficacy which corresponds to that of the control, whereas an efficacy of 100% means that no infection is observed.

[4] = tested on: Erysiphe graminis f.sp. tritici; experiment: Erysiphe test (wheat)/protective; type: in vivo; details: protective, application rate 250 g/ha, evaluation 7 days after inoculation, 100% = no infection
Experimental: Erysiphe Test (Wheat)/Protective
as §5
Emulsifier: 0.6 part by weight of alkylaryl polyglycol ether
as §3
To test for protective activity, young plants are sprayed with the preparation of active compound at the stated application rate.
After the spray coating has dried on, the plants are dusted with spores of Erysiphe graminis f.sp. tritici.
The plants are placed in a greenhouse at a temperature of about 20° C. and a relative atmospheric humidity of about 80% to promote the development of mildew pustules.
as §6

Compound: CCc1nn(C)c(NC(=O)Cc2ccc(-c3ccc(OC(F)(F)F)cc3)cc2)c1Cl [drawing 288]
Efficacy in % [1]: 100%

Compound: CCOC(=O)c1c(CC)nn(C)c1NC(=O)Cc1cccc(Oc2ccc(Cl)cc2)c1 [drawing 283]
Efficacy in % [2]: 100%

Compound: CCOC(=O)c1c(CC)nn(C)c1NC(=O)Cc1cccc(Oc2ccc(OC(F)(F)F)cc2)c1 [drawing 284]
Efficacy in % [3]: 92%

Compound: CCOC(=O)c1c(CC)nn(C)c1NC(=O)Cc1cccc(Oc2ccc(Cl)cc2)c1 [drawing 282]
Efficacy in % [4]: 100%

melting point: 112 to 113 °C
Compound: CCOC(=O)c1c(CC)nn(C)c1NC(=O)Cc1ccc(OC)cc1 [Example 1, 4-ethoxycarbonyl-3-ethyl-5-(4-methoxyphenylacetyl)-amino-1-methylpyrazole]

Compound: CCOC(=O)c1c(CC)nn(C)c1NC(=O)Cc1ccc(-c2ccc(OC(F)(F)F)cc2)cc1 [drawing 285]
Efficacy in % [3]: 100%

Compound: CCOC(=O)c1c(CC)nn(C)c1NC(=O)Cc1ccc(-c2ccc(OC(F)(F)F)cc2)cc1 [drawing 287]
Efficacy in % [1]: 100%

Compound: CCc1nn(C)c(NC(=O)Cc2ccc(-c3ccc(OC(F)(F)F)cc3)cc2)c1Cl [drawing 286]
Efficacy in % [3]: 100%

melting point: 167 to 168 °C
Compound: CCc1nn(C)c(NC(=O)Cc2ccc(Br)cc2)c1Cl [Example 5, 5-(4-bromophenylacetyl)-amino-4-chloro-3-ethyl-1-methylpyrazole]
